Source: US7087642B2 (priority 1999, dated 2006)
Read-outs that look alike come from different tables or passages of the source.

Key:
human PBMC T cells = test: cells; assay type: cell-based; settings: read-out: T-cells (IC50)
IMPDH human type II = IMPDH human type II (Homo sapiens, UniProt P12268); test: biochemical
human PBMC B cells = test: cells; assay type: cell-based; settings: read-out: B-cells (IC50)

| Compound | IC50 (human PBMC T cells; Homo sapiens, 72 h) [µM] | Ki (IMPDH human type II; read-out: Ki) [µM] | IC50 (human PBMC B cells; Homo sapiens, 72 h) [µM] | IC50 (human PBMC T cells) [µM] | IC50 (human PBMC B cells) [µM] | Ki (IMPDH human type II) [µM] |
| --- | --- | --- | --- | --- | --- | --- |
| COc1cc(NC(=O)Nc2cccc(CNC(=O)O[C@H](CN(CC(C)C)C(C)C)c3ccccc3)c2)ccc1-c1cnco1 [Compound 109] | 0.1 to 1 | > 0.05 | 0.1 to 1 |  |  |  |
| COc1cc(NC(=O)Nc2cccc(CNC(=O)O[C@@H](C)CC#N)c2)ccc1-c1cnco1 [Compound 28] |  | < 0.01 |  | 0.1 to 1 | 0.1 to 1 |  |
| COc1cc(NC(=O)Nc2cccc(CNC(=O)O[C@@H](CC#N)CN(C)C)c2)ccc1-c1cnco1 [Compound 22] | 0.1 to 1 | < 0.01 | 0.1 to 1 |  |  |  |
| COc1cc(NC(=O)Nc2cccc(CNC(=O)OC(CC#N)C(C)C)c2)ccc1-c1cnco1 (stereo not drawn) [Compound 40] | > 1 | < 0.01 | 0.1 to 1 |  |  |  |
| CCN(CC)C[C@@H](OC(=O)NCc1cccc(NC(=O)Nc2ccc(-c3cnco3)c(OC)c2)c1)c1ccccc1 [Compound 67] | 0.1 to 1 | < 0.01 | 0.1 to 1 |  |  |  |
| CCN(CC)C[C@H](OC(=O)NCc1cccc(NC(=O)Nc2ccc(-c3cnco3)c(OC)c2)c1)c1ccccc1 [Compound 66] | > 1 | < 0.01 | > 1 |  |  |  |
| CCC(CCCCO)OC(=O)NCc1cccc(NC(=O)Nc2ccc(-c3cnco3)c(OC)c2)c1 (stereo not drawn) [Compound 49] | 0.1 to 1 | < 0.01 | 0.1 to 1 |  |  |  |
| COc1cc(NC(=O)Nc2cccc(CNC(=O)OCC(C)(C)CCC#N)c2)ccc1-c1cnco1 [Compound 7] | 0.1 to 1 | < 0.01 | 0.1 to 1 |  |  |  |
| COc1cc(NC(=O)Nc2cccc(CNC(=O)OC(COC(C)C)CN(CCC#N)CC(C)C)c2)ccc1-c1cnco1 (stereo not drawn) [Compound 11] | > 1 | < 0.01 | 0.1 to 1 |  |  |  |
| COc1cc(NC(=O)Nc2cccc(CNC(=O)OC3COCC3OCC(=O)O)c2)ccc1-c1cnco1 (stereo not drawn) [Compound 71] | > 1 | < 0.01 | > 1 |  |  |  |
| C[C@H](NC(=O)O[C@H]1CCOC1)c1cccc(NC(=O)Nc2ccc(C#N)c(Cl)c2)c1 [Compound 187] | 0.1 to 1 |  | < 0.1 |  |  | 0.01 to 0.05 |
| COc1cc(NC(=O)Nc2cccc(CNC(=O)OC[C@@H](CC#N)N(C)C)c2)ccc1-c1cnco1 [Compound 15] | 0.1 to 1 | < 0.01 | 0.1 to 1 |  |  |  |
| CCN(CC)C[C@@H](OC(=O)NC(C)c1cccc(NC(=O)Nc2ccc(-c3cnco3)c(OC)c2)c1)c1ccccc1 (stereo partly drawn) [Compound 166] | 0.1 to 1 | > 0.05 | 0.1 to 1 |  |  |  |
| CCCN(CCC)CC(OC(=O)NCc1cccc(NC(=O)Nc2ccc(-c3cnco3)c(OC)c2)c1)c1ccccc1 (stereo not drawn) [Compound 113] | > 1 | > 0.05 | > 1 |  |  |  |
| CCC(CC#N)OC(=O)N[C@H](C)c1cccc(NC(=O)Nc2ccc(C#N)c(OC)c2)c1 (stereo partly drawn) [Compound 174] |  |  |  | > 1 | 0.1 to 1 | > 0.05 |
| COc1cc(NC(=O)Nc2cccc(CNC(=O)OCCN(C)CCC#N)c2)ccc1-c1cnco1 [Compound 3] | 0.1 to 1 | < 0.01 | 0.1 to 1 |  |  |  |
| COc1cc(NC(=O)Nc2cccc(CNC(=O)OC[C@H](N)CC#N)c2)ccc1-c1cnco1 [Compound 9] | 0.1 to 1 | < 0.01 | 0.1 to 1 |  |  |  |
| CCCN(C[C@@H](OC(=O)NCc1cccc(NC(=O)Nc2ccc(-c3cnco3)c(OC)c2)c1)c1ccccc1)C(C)C [Compound 108] | 0.1 to 1 | > 0.05 | < 0.1 |  |  |  |
| COc1cc(NC(=O)Nc2cccc([C@@H](C)NC(=O)OCCC#N)c2)ccc1C#N [Compound 173] | > 1 | > 0.05 | 0.1 to 1 |  |  |  |
| COc1cc(NC(=O)Nc2cccc(CNC(=O)OC(CCO)CCC#N)c2)ccc1-c1cnco1 (stereo not drawn) [Compound 45] | 0.1 to 1 | < 0.01 | 0.1 to 1 |  |  |  |
| COc1cc(NC(=O)Nc2cccc([C@H](C)NC(=O)OCCC#N)c2)ccc1C#N [Compound 170] | 0.1 to 1 | < 0.01 | 0.1 to 1 |  |  |  |
| COc1cc(NC(=O)Nc2cccc(CNC(=O)OC(CCN(C)C(C)C)c3ccccc3)c2)ccc1-c1cnco1 (stereo not drawn) [Compound 128] | 0.1 to 1 | > 0.05 | 0.1 to 1 |  |  |  |
| CCCN(CC1CC1)CC(OC(=O)NCc1cccc(NC(=O)Nc2ccc(-c3cnco3)c(OC)c2)c1)c1ccccc1 (stereo not drawn) [Compound 114] | > 1 | > 0.05 | > 1 |  |  |  |
| COCC(C)OC(=O)NCc1cccc(NC(=O)Nc2ccc(-c3cnco3)c(OC)c2)c1 (stereo not drawn) [Compound 41] | 0.1 to 1 | < 0.01 | 0.1 to 1 |  |  |  |
| CCC(CN(CC)CC)OC(=O)NCc1cccc(NC(=O)Nc2ccc(-c3cnco3)c(OC)c2)c1 (stereo not drawn) [Compound 87] | < 0.1 | < 0.01 | < 0.1 |  |  |  |
| COc1cc(NC(=O)Nc2cccc(CNC(=O)OC(CCN(CC3CC3)C(C)C)c3ccccc3)c2)ccc1-c1cnco1 (stereo not drawn) [Compound 131] | 0.1 to 1 | > 0.05 | 0.1 to 1 |  |  |  |
